Laboratory results reported in patent US20090181910A1, “METHOD OF PREVENTION AND ALLEVIATION OF TOXICITY BY MODULATION OF IRF3” (priority 2006, published 2009).
Entries after “also recorded” stand apart in the source; their conditions may differ. Where a SMILES comes first, the peptide text is derived from it. The star is where a group is joined. Cbz = O=C(OCc1ccccc1)*

How the values were obtained:
[1] = test system: RXRα; experiment: BMM anti-RXRα Western blot; type: cell-based, Murine; conditions: for RXRα protein loss following polyI:C treatment: LG268 10 nM or GW3965 1 μM added to polyI:C 1 μg/ml, 24 hrs, FIG. 8d
[2] = in adults; cited from earlier work
[3] = test system: Cyp1A2; experiment: Liver RNA Q-PCR, polyI:C/APAP-treated mice: Cyp1A2; conditions: APAP 350 mg/kg i.p., 6 h
[4] = test system: Cyp3A11; experiment: Liver RNA Q-PCR, polyI:C/APAP-treated mice: Cyp3A11; conditions: APAP 350 mg/kg i.p., 6 h
[5] = mouse, in vivo
[6] = mouse, in vivo; remark: listed apart in the source
[7] = test system: UGT1A6; type: cell-based, human; conditions: Huh7 cells with RXRα silenced by siRNA; ASA 20 μg/ml 24 hours
[8] = mouse, in vivo; remark: listed apart in the source
[9] = test system: Oatp2; set-up: species or system mice; conditions: mouse
[10] = test system: Cyp3A11; conditions: mouse
[11] = test system: RXRα; set-up: species or system mice; conditions: mouse, in vivo
[12] = test system: UGT1A6; set-up: species or system mice; conditions: mouse
[13] = Serum ALT in APAP hepatotoxicity
[14] = H&E liver histology in APAP hepatotoxicity; conditions: pretreatment with PCN or ethanol, lower levels of APAP (175 mg/kg); FIG. 3B
[15] = Survival following APAP treatment; type: in vivo, mice; conditions: PCN 75 mg/kg i.p. 24 h before APAP 175 mg/kg; FIG. 4C
Description: FIG. 4: Percentage survival following APAP treatment with or without polyI:C. (A) Wildtype (n=8) fasted and were treated with 0.1% NaCl or polyI:C (100 μg) intravenous (i.v.) 24 hours prior to treatment with APAP (600 mg/kg) by intraperitoneal (i.p.) injection. (B) Wildtype and IRF3−/− (n=6-8) fasted and were treated with 0.1% NaCl or polyI:C (100 μg) intravenous (i.v.) 24 hours prior to treatment with APAP (600 mg/kg) by intraperitoneal (i.p.) injection. (C) Wildtype mice (n=6-8) fasted and were treated with 0.1% NaCl or polyI:C (100 μg) intravenous (i.v.) and PCN (75 mg/kg) intraperitoneal (i.p.) 24 hours prior to treatment with APAP (175 mg/kg) by intraperitoneal (i.p.) injection.
Age and sex matched 6-9 week old mice were used for all experiments. C57/B16 mice were obtained from Jackson Laboratory. IRF3^−/− mice were obtained from Dr. T. Taniguchi. For APAP hepatotoxicity analysis, mice fasted for […] and then administered Vehicle (0.1% NaCl) or APAP (175-600 mg/kg) by intraperitoneal injection (i.p.). For serum and histological studies, mice were sacrificed at 6-7 hours post injection and serum and liver samples were retrieved. For survival studies, mice were studied for up to 5 days. For polyI:C studies, mice were also treated with 0.1% NaCl or polyI:C (100 μg) intravenous (i.v.) 12-24 hours prior to APAP treatment. To study the effects of PCN on APAP treatment, mice were treated with PCN (75 mg/kg) or control (1% DMSO, corn oil) by intraperitoneal (i.p.) 12-24 hours prior to APAP treatment. To study the effects of ethanol (EtOH) on APAP treatment, mice were given 20% EtOH in water ad libidum for 5 days prior to APAP therapy. PolyI:C treatment for these experiments occurred at Day 3 and Day 5. Serum alanine aminotransferase (ALT) levels were determined using manufacturer's protocol (TECO Diagnostics). For H&E staining, liver samples were fixed in formalin for 48 hours. H&E stainings were done by UCLA Tissue Procurement Core Laboratory (TPCL).

[16] = addition of PCN
[17] = test system: RXRα; type: cell-based, Murine
[18] = test system: CRBPII; experiment: RAW 264.7 Q-PCR: CRBPII; type: cell-based, murine; conditions: overexpression of Hes1 in RAW 264.7 cells; FIG. 10b
[19] = test system: ABCA1; experiment: RAW 264.7 Q-PCR: ABCA1; type: cell-based, murine; conditions: overexpression of Hes1 in RAW 264.7 cells; FIG. 10b

With `O=C(O)Cc1cccc(OCCCN(Cc2cccc(C(F)(F)F)c2Cl)CC(c2ccccc2)c2ccccc2)c1` [GW3965] the “RXRα protein loss following polyI:C treatment” value [1] was “more obvious”.
In the case of `CC(=O)Nc1ccc(O)cc1` [APAP, Acetaminophen], the “single acute toxic ingestion” value [2] is listed as “approximately 7 g”, the “induction of Cyp1A2 by APAP” value [3] is listed as “does not” and the “induction of Cyp3A11 by APAP” value [4] is listed as “does not”.
For `C[C@H](CCC(=O)O)[C@H]1CC[C@H]2[C@@H]3CC[C@@H]4C[C@H](O)CC[C@]4(C)[C@H]3CC[C@]12C` [LCA, Lithocholic acid], the “serum alanine aminotransferase (ALT) levels” value [5] was “significant elevation of serum alanine aminotransferase (ALT) levels”.
With `CC(=O)Oc1ccccc1C(=O)O` [ASA, acetylsalicylic acid] the “hepatotoxicity (liver necrosis or fatty degeneration)” value [6] was “caused severe hepatotoxicity as evidenced by liver necrosis or fatty degeneration”, the “hepatotoxicity from polyI:C plus ASA in knockout mice” value [6] was “did not occur in IRF3^−/− mice, but did occur in IFNAR^−/− mice” and the “hepatotoxicity, agent alone” value [6] was “did not cause significant hepatotoxicity”. For the same compound, the “UGT1A6 induction by ASA” value [7] was “impaired”, the blood glucose levels [8] was “significantly decreased” and the “serum ALT” value [8] was “increased”. The serum ammonia [8] was “increased”, the total bilirubin levels [8] was “increased” and the “Oatp2 mRNA in vivo” value [9] was “not other PXR/RXR genes such as Oatp2”. For the same compound, the “CYP3A11 mRNA in vivo” value [10] was “potently increased”, the “RXRα protein in liver” value [11] was “significant loss of RXRα protein” and the “UGT1A6 mRNA in vivo” value [12] was “potently increased”.
In the case of `CC(=O)[C@H]1[C@H](C#N)C[C@H]2[C@@H]3CC=C4C[C@@H](O)CC[C@]4(C)[C@H]3CC[C@@]21C` [PCN, Pregnenolone 16alpha-carbonitrile], the “LCA-induced serum ALT with PCN co-treatment” value [5] is reported as “reduced”, the “Oatp2 mRNA in vivo” value [9] is reported as “not other PXR/RXR genes such as Oatp2” and the “hepatotoxicity as measured by serum ALT” value ([13]; PCN 75 mg/kg i.p. 24 h before APAP 175 mg/kg, FIG. 2B) is reported as “caused less toxic levels of APAP to result in severe hepatotoxicity”. The “CYP3A11 mRNA in vivo” value [10] was “potently increased”, the “cell necrosis (H&E)” value [14] was “results in severe necrosis similar to higher doses of APAP” and the “sensitivity to APAP (survival)” value [15] was “increases sensitivity to lower levels of APAP”. For the same compound, the “protection from VSV plus LCA-induced hepatotoxicity” value [16] was “could not be blocked”, the “RXRα protein expression in liver” value [11] was “further loss of RXRα protein expression; also recorded: potent loss of RXRα protein” and the “UGT1A6 mRNA in vivo” value [12] was “potently increased”.
With `CC(C)C[C@@H](C=O)NC(=O)[C@H](CC(C)C)NC(=O)[C@H](CC(C)C)NC(=O)OCc1ccccc1` [MG132] (Cbz-Leu-Leu-Leu-aldehyde) the “RXRα protein loss after 9cRA and polyI:C co-stimulation” value ([1]; MG132 10 μM, BMMs, FIG. 8f) was “prevented loss of RXRα protein”.
With `Cc1cc2c(cc1C1(c3ccc(C(=O)O)cn3)CC1)C(C)(C)CCC2(C)C` [LG268] the “RXRα protein loss following polyI:C treatment” value [1] was “more obvious”.
For `CC(/C=C/C(=O)NO)=C\[C@@H](C)C(=O)c1ccc(N(C)C)cc1` [TSA, trichostatin A], the “effect on polyI:C repression of RXRα mRNA” value [17] was “prevented polyI:C repression of RXRα, and allowed polyI:C to induce RXRα”.
For `CC1=C(/C=C/C(C)=C\C=C\C(C)=C\C(=O)O)C(C)(C)CCC1` [9cRA, 9-cis retinoic acid], the “induction of CRBPII by 9cRA” value [18] was “prevents” and the “induction of ABCA1 by 9cRA” value [19] was “prevents”.
With `CCO` [ethanol, Ethanol] the “sensitivity to APAP (serum ALT)” value ([13]; 20% EtOH ad libidum 5 days, APAP 175 mg/kg, FIG. 2C) was “results in similar sensitivity to APAP as PCN treatment” and the “cell necrosis (H&E)” value [14] was “results in severe necrosis similar to higher doses of APAP”.
